Data: publication PMC4085797, “Synthetic Inositol Phosphate Analogs Reveal that PPIP5K2 Has a Surface-Mounted Substrate Capture Site that Is a Target for Drug Discovery” (Chemistry & Biology, 2014)
Like-named read-outs stand apart in the source and are kept apart here.

Experiments:
Type in all cases: biochemical
[1] = molecular target: T1, PPIP5K2^KD (kinase domain of human PPIP5K2) (Homo sapiens, UniProt O43314); assay: ATPase activity of PPIP5K2KD (Pi release); settings: for stimulation of ATPase activity (in words): 25 μM, wild-type enzyme, Figure 2
T1 construct: The kinase domain of human PPIP5K2 (PPIP5K2^KD; residues 1–366); made in house
T1 sequence (O43314 1-366): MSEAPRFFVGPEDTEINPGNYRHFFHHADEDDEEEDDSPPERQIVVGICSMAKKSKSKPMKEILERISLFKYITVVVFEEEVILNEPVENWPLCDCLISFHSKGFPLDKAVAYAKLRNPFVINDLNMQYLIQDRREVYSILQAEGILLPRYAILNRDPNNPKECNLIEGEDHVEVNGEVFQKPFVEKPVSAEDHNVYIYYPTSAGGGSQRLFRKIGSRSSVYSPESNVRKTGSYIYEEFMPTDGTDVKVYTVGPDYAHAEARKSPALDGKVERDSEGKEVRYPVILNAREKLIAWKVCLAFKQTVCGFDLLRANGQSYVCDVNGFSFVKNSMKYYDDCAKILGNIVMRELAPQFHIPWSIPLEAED
Procedure: (§1) The initial InsP6 concentration was either 500 nM, 70 nM, or 40 nM. Various concentrations of 2,5-di-O-Bn-InsP4 were present as indicated. Radioactivity was assessed using an in-line Flo1 detector. The ADP-driven dephosphorylation of 100 nM 1,5-[PP]2-InsP4 by PPIP5K2^KD was usually determined by a luminescence-based assay of ATP accumulation ([Riley et al., 2012; Weaver et al., 2013]). The IC50 values were determined using GraphPad Prism v6.02 (n ≥ 3). In some experiments, 1,5-[PP]2-[^3H]InsP4 dephosphorylation by PPIP5K2^KD was assayed in 50 μl buffer containing 50 mM KCl, 20 mM HEPES pH 7.0, 7 mM MgSO4, 5 mM ADP, 1 mM EDTA. Reactions were then quenched, neutralized, and analyzed with HPLC using a Partisphere SAX column ([Weaver et al., 2013]); 1 ml fractions were collected for liquid scintillation spectrometry. The ATPase activity of PPIP5K2^KD (10–270 μg/ml) was assayed from Pi release following incubation at 37°C for 120–180 min in 20 μl reaction mixtures containing 20 mM Tris/HCl, pH 7.5, 10 mM ATP, 100 mM KCl, 0.1 mM EDTA, and 13 mM MgCl2.

[2] = molecular target: T1, PPIP5K2^KD (kinase domain of human PPIP5K2); assay: HPLC analysis of 1,5-[PP]2-[3H]InsP4 dephosphorylation; settings: 2 μM analog, 200 nM 1,5-[PP]2-[3H]InsP4, 20 min; rate in absence 192
Procedure: as §1
S1, related to Figure 4. 2,5-Di-O-Bn-InsP4 (10) inhibits both ADP-driven [PP]2-
[3H]InsP4 dephosphorylation and ATP-driven [3H]InsP6 phosphorylation by PPIP5K2 […]
Bn-InsP4 (10) (panel C). After 20 min reactions were quenched and analyzed by HPLC […]
O-Bn-InsP4 (10) were calculated to be 192 and 95 nmol/mg protein/min, respectively. […]

[3] = molecular target: T2, human PPIP5K2^KD (Homo sapiens, UniProt O43314); assay: HPLC assay of [3H]InsP6 phosphorylation (InsP6 kinase activity)
T2 construct: The kinase domain of human PPIP5K2 (PPIP5K2^KD; residues 1–366); made in house
T2 sequence (O43314 1-366): T1 sequence (O43314 1-366)
Procedure: as §1
S1, related to Figure 4. 2,5-Di-O-Bn-InsP4 (10) inhibits both ADP-driven [PP]2-[3H]InsP4 dephosphorylation and ATP-driven [3H]InsP6 phosphorylation by PPIP5K2 […]
E:Incubation buffers (see Methods) contained 500 nM [3H]InsP6 plus either 12.5 ng PPIP5K2 KD (panel D) or 30 ng PPIP5K2KD plus 1.5 μM 2,5-di-O-Bn-InsP4 (10) (panel E). Reactions rates in the absence and presence of 2,5-di-O-Bn-InsP4 (10) were calculated to be 52 and 21 nmol/mg protein/min, respectively. […]

[4] = molecular target: T3, human IP6K2 (Homo sapiens, UniProt Q9UHH9); assay: HPLC assay of [3H]InsP6 phosphorylation by IP6K2; settings: [InsP6] = 500 nM; data not shown; read-out: IC50, inhibition of IP6K2 activity
T3 construct: Full-length human IP6K2, the kinase domain of human PPIP5K2; made in house
T3 sequence (Q9UHH9 1-426): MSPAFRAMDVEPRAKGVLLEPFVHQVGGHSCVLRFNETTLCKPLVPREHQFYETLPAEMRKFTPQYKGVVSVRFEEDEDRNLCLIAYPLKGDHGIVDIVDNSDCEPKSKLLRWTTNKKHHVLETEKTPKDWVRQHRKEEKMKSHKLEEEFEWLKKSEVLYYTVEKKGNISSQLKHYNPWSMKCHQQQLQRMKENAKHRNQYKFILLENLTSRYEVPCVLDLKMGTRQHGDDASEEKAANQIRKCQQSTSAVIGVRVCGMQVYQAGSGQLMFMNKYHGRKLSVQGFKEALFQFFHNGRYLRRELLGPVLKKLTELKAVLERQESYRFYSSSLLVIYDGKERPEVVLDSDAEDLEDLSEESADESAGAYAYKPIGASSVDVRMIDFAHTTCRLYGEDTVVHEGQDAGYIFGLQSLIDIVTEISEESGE
Procedure: as §1

| Structure (SMILES) | stimulation of ATP hydrolysis ([1]; 25 μM analog) | stimulation of ATPase activity (in words) [1] | EC50 ([1]; dose-response, key of Figure 4A, n = 3, read-out: EC50, stimulation of ATPase activities) | EC50 ([1]; Figure 4A, read-out: EC50, stimulation of ATPase activity) | reaction rate of [PP]2-[3H]InsP4 dephosphorylation in the presence of analog [2] | reaction rate of [3H]InsP6 phosphorylation in the presence of analog ([3]; 1.5 μM analog, 500 nM [3H]InsP6, rate in absence 52) | nature of inhibition of InsP6 kinase activity ([3]; Dixon plot, Figure 4C) | Ki ([3]; Figure 4C, read-out: Ki, inhibition of InsP6 kinase activity (Dixon plot)) | IC50 ([3]; [InsP6] = 500 nM, read-out: IC50, inhibition of InsP6 phosphorylation) | IC50 [4] |
| --- | --- | --- | --- | --- | --- | --- | --- | --- | --- | --- |
| O=C(CP(=O)(O)O)O[C@@H]1[C@@H](OP(=O)(O)O)[C@H](OP(=O)(O)O)[C@H](OCc2ccccc2)[C@H](OP(=O)(O)O)[C@H]1OP(=O)(O)O [compound 2, 2-O-benzyl-5-O-α-phosphonoacetyl-myo-inositol 1,3,4,6-tetrakisphosphate] | 9 fold | strongly activated | 550 nM |  |  |  |  |  |  |  |
| O=P(O)(O)O[C@@H]1[C@@H](OCc2ccccc2)[C@H](OP(=O)(O)O)[C@@H](OP(=O)(O)O)[C@@H](OCc2ccccc2)[C@H]1OP(=O)(O)O [compound 10, 2,5-di-O-Bn-InsP4] |  | highest degree of ATPase activity among all of the analogs |  | 340 nM | 95 nmol/mg protein/min | 21 nmol/mg protein/min | competitive | 240 nM | 1000 nM | 63000 nM |
